Test results from patent publication US20190375708A1 (VenatoRx Pharmaceuticals, Inc., priority 2018, published 2019).

Legend:
[1] = In vitro cytotoxicity assay (MTT cell viability) in HepG2 cells; format: cell-based, human; conditions: human
Experimental: To evaluate antiviral selectivity, the cytotoxic activity of each compound was determined using a standard cell viability assay performed on the parental HepG2 cell line. Cell viability was determined by measuring the conversion of 3-(4,5-dimethylthiazol-2-yl)-2,5-diphenyltetrazolium bromide (MTT) to the insoluble formazan salt crystal that occurs in live cells. Briefly, HepG2 cells were seeded in 96-well plates at a density of 20,000 cells per well in EMEM+10% FBS (complete growth medium) and allowed to adhere overnight in a 37° C., 5% CO2 humidified incubator. The next day, test agents were prepared by performing 8 half-log10 serial dilutions in 100% DMSO at 200× the final desired concentration in the assay. Compounds were tested over a range of concentrations from 30 μM to 1.0 nM in the assay. HepG2 cells were incubated in the presence of various concentrations of CAMs for 7 days in a 37° C., 5% CO2 humidified incubator. At the completion of the 7-day incubation period, MTT reagent was added to each well and the mixture was incubated for an additional 3-4 hours. At the completion of the incubation period, all wells were aspirated to remove the culture medium. The formazan crystals were solubilized from the cell monolayers with 100% DMSO. Plates were briefly mixed on an orbital shaker and absorbance was measured at 492 nm using a Perkin-Elmer EnVision multi-label plate reader. All absorbance values were converted to a percentage of the signal obtained from the vehicle treated controls. Absorbance values at 492 nm are directly proportional to the number of viable cells present in the sample. A CC50 value (cytotoxic concentration that results in loss of 50% cell viability) was calculated from the dose-response curve by 4-parameter, non-linear regression analysis using the GraphPad Prism software. The positive control compound, staurosporine, reduced the viability of HepG2 cells in a dose-dependent manner (CC50=100 nM).

[2] = system: HBV replication in HepAD38 cells; assay: Anti-HBV replication assay in HepAD38 cells (QPCR of extracellular HBV DNA); format: cell-based, HBV (genotype D, serotype ayw); conditions: Hepatitis B virus, 168 h, 7 days incubation, extracellular HBV DNA by QPCR, read-out: Anti-HBV EC50
Experimental: The anti-HBV activity of the Capsid Assembly Modulators (CAMs) was evaluated in a cell based assay utilizing the human hepatoma cell line HepAD38 (Ladner, S K., et al., 1998). HepAD38 cells were derived from the parental line, HepG2, that were stably transfected with a construct containing an HBV genome (genotype D, serotype ayw) under the control of a tetracycline repressible CMV promoter. Upon removal of tetracycline, viral pre-genomic RNA (pgRNA) and mRNAs are expressed and infectious viral particles are assembled and secreted into the culture medium providing a reliable, robust system to measure multiple steps of the HBV life cycle. Disruption of capsid formation results in reduced levels of DNA-containing virus particles that are released into the culture supernatant. To quantify the effect of CAMs on HBV replication, we developed a sensitive QPCR-based assay that measures extracellular HBV DNA levels upon treatment of HepAD38 cells with various concentrations of test compounds.
HepAD38 cells were maintained in DMEM/F12 medium containing 10% FBS, 400 μg/mL G418 and 0.3 μg/mL tetracycline (tet+ media) to maintain repression of HBV replication. To evaluate each compound, HepAD38 cells were seeded into 24-well collagen coated culture plates (Corning BioCoat) at a density of 200,000 cells per well in 1 mL of medium without tetracycline (tet-media) and allowed to adhere overnight at 37° C., 5% CO2 in a humidified incubator. The following day, media was refreshed and a dose range of each compound was prepared by performing 1 log10 serial dilutions in 100% DMSO at 200× the desired assay concentration. Dilutions were then added to the cells resulting in a final dose range of 1 μM to 10 μM and the plates were returned to the incubator. Following 7 days of incubation, culture supernatants were harvested and HBV DNA levels were evaluated by QPCR and compared to the vehicle treated control wells (i.e. DMSO alone).
To quantify HBV DNA levels, cell culture supernatants were diluted 1:10 in sterile, nuclease-free water (Gibco). The diluted supernatants were subsequently added to a PCR master mix containing 1× Roche Light Cycler Master Mix, 0.5 μM forward primer, 0.5 μM reverse primer (Fwd: 5′-[…] (SEQ ID NO 1); Rev: 5′-[…] (SEQ ID NO 2)), 0.2 μM Roche Universal Probe Library Probe 25. The volume was brought to 20 μL with nuclease-free water and amplification of the HBV target sequence was performed using a Roche LightCycler 480 QPCR instrument. PCR extended out to 45 cycles with each cycle consisting of a denaturation step at 95° C. for 10 sec., followed by an annealing step at 60° C. for 10 sec. and a brief extension step at 72° C. for 1 sec.
Extracellular HBV DNA levels, expressed in copies/mL, were determined by comparison to a standard curve (10^2-10^9 copies/mL) using the Roche LightCycler analysis software. These values were subsequently converted to percent inhibition of HBV replication by dividing the HBV DNA levels in the experimental samples with those obtained from the vehicle control (˜1-2×10^5 copies/mL). Potency, expressed as an EC50 (the effective concentration required to inhibit 50% of HBV replication), was calculated from the dose-response curve using a 4-parameter non-linear regression analysis (GraphPad Prism). The nucleoside analog inhibitor entecavir was used as a positive control to validate each assay run. The EC50 value of entecavir in the HepAD38 assay was 0.5 nM, as previously reported in the literature.

Cc1cc(NC(=O)c2c(C)c(C(=O)C(=O)NC3CC4CCC(C3)S4(=O)=O)n(C)c2C)ccc1F (stereo not shown) [Example 624, 5-(2-((8,8-dioxido-8-thiabicyclo[3.2.1]ctan-3-yl)amino)-2-oxoacetyl)-N-(4-fluoro-3-methylphenyl)-1,2,4-trimethyl-1H-pyrrole-3-carboxamide]
CC50 at 7 days [1]: > 30 µM | EC50 [2]: < 0.05 µM

O=C(N[C@H]1C[C@H](O)C1)C(=O)c1c(Cl)c(C(=O)Nc2ccc(F)c(F)c2)c2n1CCC2 [Example 551, 6-chloro-N-(3,4-difluorophenyl)-5-(2-(((1r,3r)-3-hydroxycyclobutyl)amino)-2-oxoacetyl)-2,3-dihydro-1H-pyrrolizine-7-carboxamide]
CC50 at 7 days [1]: > 30 µM | EC50 [2]: 0.05 to 0.499 µM

Cc1cc(NC(=O)c2c(C)c(C(=O)C(=O)N[C@H]3CCN(S(C)(=O)=O)C3)n(C)c2C)ccc1F [Example 667, (S)-N-(4-fluoro-3-methylphenyl)-1,2,4-trimethyl-5-(2-((1-(methylsulfonyl)pyrrolidin-3-yl)amino)-2-oxoacetyl)-1H-pyrrole-3-carboxamide]
CC50 at 7 days [1]: 0.5 to 4.99 µM | EC50 [2]: < 0.05 µM

O=C(N[C@H]1C[C@H](O)C1)C(=O)c1c(Cl)c(C(=O)Nc2ccc(F)c(Cl)c2)c2n1CCCC2 [Example 531, 2-chloro-N-(3-chloro-4-fluorophenyl)-3-(2-(((1r,3r)-3-hydroxycyclobutyl)amino)-2-oxoacetyl)-5,6,7,8-tetrahydroindolizine-1-carboxamide]
CC50 at 7 days [1]: > 30 µM | EC50 [2]: 0.05 to 0.499 µM

Cc1cc(NC(=O)c2c(Cl)c(C(=O)C(=O)N[C@H]3COC[C@@H]3O)n3c2CCC3)ccc1F [Example 572, 6-chloro-N-(4-fluoro-3-methylphenyl)-5-(2-(((3S,4R)-4-hydroxytetrahydrofuran-3-yl)amino)-2-oxoacetyl)-2,3-dihydro-1H-pyrrolizine-7-carboxamide]
CC50 at 7 days [1]: > 30 µM | EC50 [2]: < 0.05 µM

Cc1cc(NC(=O)c2c(C)c(C(=O)C(=O)N[C@@]3(C)CC[C@@H](O)C3)n(C)c2C)ccc1F [Example 722, N-(4-fluoro-3-methylphenyl)-5-(2-(((1S,3R)-3-hydroxy-1-methylcyclopentyl)amino)-2-oxoacetyl)-1,2,4-trimethyl-1H-pyrrole-3-carboxamide]
CC50 at 7 days [1]: > 30 µM | EC50 [2]: < 0.05 µM

Cc1csc(NC(=O)C(=O)c2c(C)c(C(=O)Nc3cc(F)c(F)c(F)c3)c(C)n2C)n1 [Example 323, 1,2,4-trimethyl-5-(2-((4-methylthiazol-2-yl)amino)-2-oxoacetyl)-N-(3,4,5-trifluorophenyl)-1H-pyrrole-3-carboxamide]
CC50 at 7 days [1]: 5 to 30 µM | EC50 [2]: < 0.05 µM

O=C(NC1(CO)CC(F)(F)C1)C(=O)c1c(Cl)c(C(=O)Nc2ccc(F)c(Cl)c2)c2n1CCCC2 [Example 515, 2-chloro-N-(3-chloro-4-fluorophenyl)-3-(2-((3,3-difluoro-1-(hydroxymethyl)cyclobutyl)amino)-2-oxoacetyl)-5,6,7,8-tetrahydroindolizine-1-carboxamide]
CC50 at 7 days [1]: 5 to 30 µM | EC50 [2]: < 0.05 µM

Cc1cc(NC(=O)c2c(C)c(C(=O)C(=O)N[C@H]3CC[C@H](O)C3)n(CCF)c2C)ccc1F [Example 194, N-(4-fluoro-3-methylphenyl)-1-(2-fluoroethyl)-5-(2-(((1S,3S)-3-hydroxycyclopentyl)amino)-2-oxoacetyl)-2,4-dimethyl-1H-pyrrole-3-carboxamide]
CC50 at 7 days [1]: > 30 µM | EC50 [2]: 0.05 to 0.499 µM

Cc1cc(NC(=O)c2cc(C(=O)C(=O)NC(C)(C)CO)n3c2CCCC3)ccc1F [Example 411, N-(4-fluoro-3-methylphenyl)-3-(2-((1-hydroxy-2-methylpropan-2-yl)amino)-2-oxoacetyl)-5,6,7,8-tetrahydroindolixzine-1-carboxamide]
CC50 at 7 days [1]: > 30 µM | EC50 [2]: 0.05 to 0.499 µM

Cc1nc2c(s1)CCCC2NC(=O)C(=O)c1c(C)c(C(=O)Nc2ccc(F)c(C)c2)c(C)n1C (stereo not shown) [Example 625, N-(4-fluoro-3-methylphenyl)-1,2,4-trimethyl-5-(2-((2-methyl-4,5,6,7-tetrahydrobenzo[d]thiazol-4-yl)amino)-2-oxoacetyl)-1H-pyrrole-3-carboxamide]
CC50 at 7 days [1]: > 30 µM | EC50 [2]: < 0.05 µM

Cc1cc(NC(=O)c2c(C)c(C(=O)C(=O)NCCc3c(C)[nH][nH]c3=O)n(C)c2C)ccc1F [Example 650, N-(4-fluoro-3-methylphenyl)-1,2,4-trimethyl-5-(2-((2-(5-methyl-3-oxo-2,3-dihdyro-1H-pyrazol-4-yl)ethyl)amino)-2-oxoacetyl)-1H-pyrrole-3-carboxamide]
CC50 at 7 days [1]: > 30 µM | EC50 [2]: 0.05 to 0.499 µM

COc1c(C(=O)Nc2ccc(F)c(F)c2)c(C)n(C)c1C(=O)C(=O)NC1(C)CC(F)(F)C1 [Example 379, 5-(2-((3,3-difluoro-1-methylcyclobutyl)amino)-2-oxoacetyl)-N-(3,4-difluorophenyl)-4-methoxy-1,2-dimethyl-1H-pyrrole-3-carboxamide]
CC50 at 7 days [1]: > 30 µM | EC50 [2]: 0.05 to 0.499 µM

CC[C@H](C)NC(=O)C(=O)c1c(C)c(C(=O)Nc2cnc(F)c(C)c2)c2n1CCCC2 [Example 475, (S)-3-(2-(sec-butylamino)-2-oxoacetyl)-N-(6-fluoro-5-methylpyridin-3-yl)-2-methyl-5,6,7,8-tetrahydroindolizine-1-carboxamide]
CC50 at 7 days [1]: > 30 µM | EC50 [2]: 0.5 to 1 µM

Cc1cc(NC(=O)c2c(C)c(C(=O)C(=O)NC3(CO)CC(F)(F)C3)n(C)c2Cl)ccc1F [Example 387, 2-chloro-5-(2-((3,3-difluoro-1-(hydroxymethyl)cyclobutyl)amino)-2-oxoacetyl)-N-(4-fluoro-3-methylphenyl)-1,4-dimethyl-1H-pyrrole-3-carboxamide]
CC50 at 7 days [1]: 5 to 30 µM | EC50 [2]: > 1 µM

Cc1cc(NC(=O)c2c(C)c(C(=O)C(=O)N[C@@H]3C[C@H](O)[C@@H](O)[C@H]3O)n(C)c2C)ccc1F [Example 712, N-(4-fluoro-3-methylphenyl)-1,2,4-trimethyl-5-(2-oxo-2-(((1R,2S,3R,4S)-2,3,4-trihydroxycyclopentyl)amino)acetyl)-1H-pyrrole-3-carboxamide]
CC50 at 7 days [1]: > 30 µM | EC50 [2]: < 0.05 µM

Cc1cc(NC(=O)c2c(C)c(C(=O)C(=O)NC(C)(C)CF)n(C)c2C)ccc1F [Example 6, 5-(2-((1-fluoro-2-methylpropan-2-yl)amino)-2-oxoacetyl)-N-(4-fluoro-3-methylphenyl)-1,2,4-trimethyl-1H-pyrrole-3-carboxamide]
CC50 at 7 days [1]: > 30 µM | EC50 [2]: < 0.05 µM
